The subject of this test is MV-4-11 cells. In words: Gene expression microarray analysis (Affymetrix PrimeView) and GSEA. Type of test: cell-based, human. Also noted: RFU PODN (11730768_x_at) / Fold change /veh PODN (11730768_x_at) / RFU LINC00158 (11744669_a_at) / Fold change /veh LINC00158 (11744669_a_at) / RFU DUSP10 (11751237_a_at) / Fold change /veh DUSP10 (11751237_a_at) / RFU ID3 (11757404_x_at) / Fold change /veh ID3 (11757404_x_at) / RFU PLEKHG5 (11737974_s_at) / Fold change /veh PLEKHG5 (11737974_s_at) / RFU LRRC4B (11730491_at) / Fold change /veh LRRC4B (11730491_at) / RFU GIMAP4 (11747438_a_at) / Fold change /veh GIMAP4 (11747438_a_at) / RFU KRT8 (11758183_x_at) / Fold change /veh KRT8 (11758183_x_at) / RFU CNN1 (11734310_a_at) / Fold change /veh CNN1 (11734310_a_at) / RFU VPS37D (11726825_at) / Fold change /veh VPS37D (11726825_at) / RFU C10orf10 (11716522_x_at) / Fold change /veh C10orf10 (11716522_x_at) / RFU KIR2DL2 /// KIR2DL4 /// KIR2DL5A /// KIR2DL5B /// KIR2DS1 /// KIR2DS2 /// KIR2DS3 /// KIR2DS4 /// KIR3DL3 /// KIR3DL3 /// KIR3DS1 (11738374_at) / Fold change /veh KIR2DL2 /// KIR2DL4 /// KIR2DL5A /// KIR2DL5B /// KIR2DS1 /// KIR2DS2 /// KIR2DS3 /// KIR2DS4 /// KIR3DL3 /// KIR3DL3 /// KIR3DS1 (11738374_at) / RFU C1QL1 (11718748_at) / Fold change /veh C1QL1 (11718748_at) / RFU TMPRSS4 (11747572_a_at) / Fold change /veh TMPRSS4 (11747572_a_at) / RFU HAMP (11756126_x_at) / Fold change /veh HAMP (11756126_x_at) / RFU RNFT2 (11725882_a_at) / Fold change /veh RNFT2 (11725882_a_at) / RFU NR4A2 (11747474_a_at) / Fold change /veh NR4A2 (11747474_a_at) / RFU ABCC12 (11746883_a_at) / Fold change /veh ABCC12 (11746883_a_at) / RFU TMEM136 (11760407_x_at) / Fold change /veh TMEM136 (11760407_x_at) / RFU CLDN22 /// WWC2 (11732394_at) / Fold change /veh CLDN22 /// WWC2 (11732394_at) / RFU HLA-DPB1 (11760878_x_at) / Fold change /veh HLA-DPB1 (11760878_x_at) / RFU SPINT1 (11716480_a_at) / Fold change /veh SPINT1 (11716480_a_at) / RFU GAP43 (11754022_s_at) / Fold change /veh GAP43 (11754022_s_at) / RFU A4GNT (11735810_at) / Fold change /veh A4GNT (11735810_at) / RFU PRB3 (11715151_x_at) / Fold change /veh PRB3 (11715151_x_at) / RFU TUBB4B (11761932_at) / Fold change /veh TUBB4B (11761932_at) / RFU CAPN14 (11732068_a_at) / Fold change /veh CAPN14 (11732068_a_at) / RFU TMCC2 (11721928_a_at) / Fold change /veh TMCC2 (11721928_a_at) / RFU IRGQ (11745062_a_at) / Fold change /veh IRGQ (11745062_a_at) / RFU FAM174B (11720279_a_at) / Fold change /veh FAM174B (11720279_a_at) / RFU TMPRSS4 (11748680_a_at) / Fold change /veh TMPRSS4 (11748680_a_at) / RFU FAM212B (11763350_a_at) / Fold change /veh FAM212B (11763350_a_at) / RFU PLEKHG5 (11743358_a_at) / Fold change /veh PLEKHG5 (11743358_a_at) / RFU ZSCAN30 (11745921_a_at) / Fold change /veh ZSCAN30 (11745921_a_at) / RFU CMKLR1 (11741424_a_at) / Fold change /veh CMKLR1 (11741424_a_at) / RFU LOC101060620 /// MAPK8IP1 (11723275_at) / Fold change /veh LOC101060620 /// MAPK8IP1 (11723275_at) / RFU SPTSSB (11747773_x_at) / Fold change /veh SPTSSB (11747773_x_at) / RFU PRSS12 (11739890_at) / Fold change /veh PRSS12 (11739890_at) / RFU BIN1 (11741810_x_at) / Fold change /veh BIN1 (11741810_x_at) / RFU WNT11 (11732464_a_at) / Fold change /veh WNT11 (11732464_a_at) / RFU C10orf10 (11716521_a_at) / Fold change /veh C10orf10 (11716521_a_at) / RFU C5orf56 (11738089_at) / Fold change /veh C5orf56 (11738089_at) / RFU CYB561 (11721691_x_at) / Fold change /veh CYB561 (11721691_x_at) / RFU ANKRD19P (11752326_a_at) / Fold change /veh ANKRD19P (11752326_a_at) / RFU OR2T12 /// OR2T33 /// OR2T8 (11738714_s_at) / Fold change /veh OR2T12 /// OR2T33 /// OR2T8 (11738714_s_at) / RFU VCAN (11748164_a_at) / Fold change /veh VCAN (11748164_a_at) / RFU JSRP1 (11732532_at) / Fold change /veh JSRP1 (11732532_at) / RFU KRTAP10-11 (11738290_x_at) / Fold change /veh KRTAP10-11 (11738290_x_at) / RFU MYO3A (11730013_a_at) / Fold change /veh MYO3A (11730013_a_at) / RFU EBF3 (11725865_a_at) / Fold change /veh EBF3 (11725865_a_at) / RFU CAMK2N1 (11719241_x_at) / Fold change /veh CAMK2N1 (11719241_x_at) / RFU C5orf56 (11738088_a_at) / Fold change /veh C5orf56 (11738088_a_at) / RFU OLFML3 (11715873_a_at) / Fold change /veh OLFML3 (11715873_a_at) / RFU LOC100653217 /// NTM (11731650_a_at) / Fold change /veh LOC100653217 /// NTM (11731650_a_at) / RFU MAPK11 (11762145_a_at) / Fold change /veh MAPK11 (11762145_a_at) / RFU FIZ1 (11724087_x_at) / Fold change /veh FIZ1 (11724087_x_at) / RFU OASL (11726364_x_at) / Fold change /veh OASL (11726364_x_at) / RFU SOX15 (11748057_x_at) / Fold change /veh SOX15 (11748057_x_at) / RFU CD79A (11719716_a_at) / Fold change /veh CD79A (11719716_a_at) / RFU HIST1H1D (11736915_at) / Fold change /veh HIST1H1D (11736915_at) / RFU CASKIN2 (11723855_a_at) / Fold change /veh CASKIN2 (11723855_a_at) / RFU LOC730098 (11760151_x_at) / Fold change /veh LOC730098 (11760151_x_at) / RFU OR4N2 (11742367_at) / Fold change /veh OR4N2 (11742367_at) / RFU PRRT2 (11749266_a_at) / Fold change /veh PRRT2 (11749266_a_at) / RFU SNX32 (11753110_a_at) / Fold change /veh SNX32 (11753110_a_at) / RFU CDHR5 (11726645_a_at) / Fold change /veh CDHR5 (11726645_a_at) / RFU RCAN1 (11760418_a_at) / Fold change /veh RCAN1 (11760418_a_at) / RFU FAM167A (11723789_a_at) / Fold change /veh FAM167A (11723789_a_at) / RFU FAM26E (11764081_at) / Fold change /veh FAM26E (11764081_at) / RFU ISYNA1 (11749810_s_at) / Fold change /veh ISYNA1 (11749810_s_at) / RFU ACY1 (11761880_at) / Fold change /veh ACY1 (11761880_at) / RFU 11764098_at / Fold change /veh 11764098_at / RFU SAMD14 (11745864_x_at) / Fold change /veh SAMD14 (11745864_x_at) / RFU NPB (11741838_a_at) / Fold change /veh NPB (11741838_a_at) / RFU TMPRSS6 (11731388_a_at) / Fold change /veh TMPRSS6 (11731388_a_at) / RFU KRTAP10-2 (11738614_at) / Fold change /veh KRTAP10-2 (11738614_at) / RFU ARHGAP8 /// PRR5-ARHGAP8 (11727945_x_at) / Fold change /veh ARHGAP8 /// PRR5-ARHGAP8 (11727945_x_at) / RFU KRTAP5-7 /// NADSYN1 (11734609_at) / Fold change /veh KRTAP5-7 /// NADSYN1 (11734609_at) / RFU RASL12 (11751679_a_at) / Fold change /veh RASL12 (11751679_a_at) / RFU CDKN2B (11736163_a_at) / Fold change /veh CDKN2B (11736163_a_at) / RFU PRF1 (11729649_at) / Fold change /veh PRF1 (11729649_at) / RFU, ZNF638 /// ZNF638-IT1 / Fold change vs veh, ZNF638 /// ZNF638-IT1 / RFU, PANK3 / Fold change vs veh, PANK3 / RFU, SH3YL1 / Fold change vs veh, SH3YL1 / RFU, ZEB2 / Fold change vs veh, ZEB2 / RFU, NRIP1 / Fold change vs veh, NRIP1 / RFU, PTTG1IP / Fold change vs veh, PTTG1IP / RFU, CAPN2 / Fold change vs veh, CAPN2 / RFU, MED14 / Fold change vs veh, MED14 / RFU, SNORA58 / Fold change vs veh, SNORA58 / RFU, C1orf63 / Fold change vs veh, C1orf63 / RFU, LRRFIP1 / Fold change vs veh, LRRFIP1 / RFU, NDUFAF7 / Fold change vs veh, NDUFAF7 / RFU, SLC12A2 / Fold change vs veh, SLC12A2 / RFU, IBTK / Fold change vs veh, IBTK / RFU, ESF1 / Fold change vs veh, ESF1 / Fold change vs veh, TMEM50B / RFU, TAOK1 / Fold change vs veh, TAOK1 / RFU, ACBD3 / Fold change vs veh, ACBD3 / RFU, TMA16 / Fold change vs veh, TMA16 / RFU, RWDD3 / Fold change vs veh, RWDD3 / RFU, BCAT1 / Fold change vs veh, BCAT1 / RFU, EDEM3 / Fold change vs veh, EDEM3 / RFU, TMEM33 / Fold change vs veh, TMEM33 / RFU, WDR75 / Fold change vs veh, WDR75 / RFU, AHCTF1 / Fold change vs veh, AHCTF1 / RFU, TFRC / Fold change vs veh, TFRC / RFU, ZDHHC17 / Fold change vs veh, ZDHHC17 / RFU, NOM1 / Fold change vs veh, NOM1 / RFU, ARL8B / Fold change vs veh, ARL8B / RFU, ZBTB11 / Fold change vs veh, ZBTB11 / RFU, TAMM41 / Fold change vs veh, TAMM41 / RFU, KIAA1704 /// LOC100996395 / Fold change vs veh, KIAA1704 /// LOC100996395 / RFU, ING1 / Fold change vs veh, ING1 / RFU, TRMT61B / Fold change vs veh, TRMT61B / RFU, FUBP3 / Fold change vs veh, FUBP3 / RFU, TP53 / Fold change vs veh, TP53 / RFU, TNKS2 / Fold change vs veh, TNKS2 / RFU, ZFP14 / Fold change vs veh, ZFP14 / RFU, ACTR2 / Fold change vs veh, ACTR2 / RFU, PPP3R1 / Fold change vs veh, PPP3R1 / RFU, PIK3R1 / Fold change vs veh, PIK3R1 / RFU, HNRNPA1 / Fold change vs veh, HNRNPA1 / RFU, RNF170 / Fold change vs veh, RNF170 / RFU, ZNF28 / Fold change vs veh, ZNF28 / RFU, RNGTT / Fold change vs veh, RNGTT / RFU, OGT / Fold change vs veh, OGT / RFU, BRD1 / Fold change vs veh, BRD1 / RFU, MARS / Fold change vs veh, MARS / RFU, ZNF655 / Fold change vs veh, ZNF655 / RFU, FAHD1 / Fold change vs veh, FAHD1 / RFU, BDP1 / Fold change vs veh, BDP1 / RFU, LRRCC1 / Fold change vs veh, LRRCC1 / RFU, ARID1A / Fold change vs veh, ARID1A / RFU, ZNF146 / Fold change vs veh, ZNF146 / RFU, ZNF330 / Fold change vs veh, ZNF330 / RFU, GPN3 / Fold change vs veh, GPN3 / RFU, C9orf123 / Fold change vs veh, C9orf123 / RFU, N4BP2L2 / Fold change vs veh, N4BP2L2 / RFU, ARFIP1 / Fold change vs veh, ARFIP1 / RFU, FAM179B / Fold change vs veh, FAM179B / RFU, BCL10 / Fold change vs veh, BCL10 / RFU, UHRF1BP1L / Fold change vs veh, UHRF1BP1L / RFU, BET1 / Fold change vs veh, BET1 / RFU, CNOT2 / Fold change vs veh, CNOT2 / RFU, ZNF268 / Fold change vs veh, ZNF268 / Fold change vs veh, ZNF507 / RFU, DGCR2 / Fold change vs veh, DGCR2 / RFU, WDSUB1 / Fold change vs veh, WDSUB1 / Fold change vs veh, HSP90B1 /// MIR3652 / RFU, ADSS / Fold change vs veh, ADSS / RFU, GK / Fold change vs veh, GK / RFU, ZNF148 / Fold change vs veh, ZNF148 / RFU, TAF9 / Fold change vs veh, TAF9 / RFU, SLC1A5 / Fold change vs veh, SLC1A5 / RFU, SLMO2 / Fold change vs veh, SLMO2 / RFU, ABCC4 / Fold change vs veh, ABCC4 / RFU, LOC101060439 /// RAP1B / Fold change vs veh, LOC101060439 /// RAP1B / RFU, RFX7 / Fold change vs veh, RFX7 / RFU, GTPBP10 / Fold change vs veh, GTPBP10 / RFU, CNEP1R1 / Fold change vs veh, CNEP1R1 / RFU, BIVM-ERCC5 /// ERCC5 / Fold change vs veh, BIVM-ERCC5 /// ERCC5 / RFU, ILF3 / Fold change vs veh, ILF3 / RFU 11762660_at / Fold change /veh 11762660_at / RFU VCAN (11757783_s_at) / Fold change /veh VCAN (11757783_s_at) / RFU DDX43 (11728927_at) / Fold change /veh DDX43 (11728927_at) / RFU KRT8 (11758188_x_at) / Fold change /veh KRT8 (11758188_x_at) / RFU NKD1 (11759106_at) / Fold change /veh NKD1 (11759106_at) / RFU SRD5A1 (11742802_a_at) / Fold change /veh SRD5A1 (11742802_a_at) / RFU TPSAB1 /// TPSB2 (11721975_s_at) / Fold change /veh TPSAB1 /// TPSB2 (11721975_s_at) / RFU GSTM3 (11746129_a_at) / Fold change /veh GSTM3 (11746129_a_at) / RFU IL23R (11737362_x_at) / Fold change /veh IL23R (11737362_x_at) / RFU TMEM51 (11727254_a_at) / Fold change /veh TMEM51 (11727254_a_at) / RFU PIWIL2 (11732686_x_at) / Fold change /veh PIWIL2 (11732686_x_at) / RFU ORM1 (11744905_x_at) / Fold change /veh ORM1 (11744905_x_at) / RFU CCDC152 (11743942_at) / Fold change /veh CCDC152 (11743942_at) / RFU ECM1 (11717891_a_at) / Fold change /veh ECM1 (11717891_a_at) / RFU IL23R (11748794_a_at) / Fold change /veh IL23R (11748794_a_at) / RFU TNFAIP8L3 (11732012_x_at) / Fold change /veh TNFAIP8L3 (11732012_x_at) / RFU MBOAT4 (11741988_at) / Fold change /veh MBOAT4 (11741988_at) / RFU 11764193_at / Fold change /veh 11764193_at / RFU TMEM53 (11763286_at) / Fold change /veh TMEM53 (11763286_at) / RFU MAGEB2 (11727129_at) / Fold change /veh MAGEB2 (11727129_at) / RFU TMEM200A (11744735_a_at) / Fold change /veh TMEM200A (11744735_a_at) / RFU CCDC152 (11751479_a_at) / Fold change /veh CCDC152 (11751479_a_at) / RFU FAM211A (11726209_a_at) / Fold change /veh FAM211A (11726209_a_at) / RFU RGS16 (11746705_a_at) / Fold change /veh RGS16 (11746705_a_at) / RFU VCAN (11755009_s_at) / Fold change /veh VCAN (11755009_s_at) / RFU RHOB (11743442_s_at) / Fold change /veh RHOB (11743442_s_at) / RFU RGS16 (11720943_a_at) / Fold change /veh RGS16 (11720943_a_at) / RFU RGS16 (11720944_at) / Fold change /veh RGS16 (11720944_at) / RFU, VPS4B / Fold change vs veh, VPS4B / RFU, CREB1 / Fold change vs veh, CREB1 / RFU, DNAJC13 / Fold change vs veh, DNAJC13 / RFU, GNAQ / Fold change vs veh, GNAQ / RFU, CDK5R1 / Fold change vs veh, CDK5R1 / RFU, ZRANB3 / Fold change vs veh, ZRANB3 / RFU, CUL4A / Fold change vs veh, CUL4A / RFU, CCNY / Fold change vs veh, CCNY / RFU, UFL1 / Fold change vs veh, UFL1 / RFU, COG3 / Fold change vs veh, COG3 / RFU, DIAPH2 / Fold change vs veh, DIAPH2 / RFU, SKA2 / Fold change vs veh, SKA2 / RFU, AFF3 / Fold change vs veh, AFF3 / RFU, LMF1 / Fold change vs veh, LMF1 / RFU, IPO11 / Fold change vs veh, IPO11 / RFU, DFFB / Fold change vs veh, DFFB / RFU, FOXP1 / Fold change vs veh, FOXP1 / RFU, CARD8 / Fold change vs veh, CARD8 / RFU, STRN3 / Fold change vs veh, STRN3 / RFU, ADK / Fold change vs veh, ADK / RFU, RASSF2 / Fold change vs veh, RASSF2 / RFU, WIPF1 / Fold change vs veh, WIPF1 / RFU, LARP1B / Fold change vs veh, LARP1B / RFU, RASA1 / Fold change vs veh, RASA1 / RFU, RB1 / Fold change vs veh, RB1 / RFU, PPFIA1 / Fold change vs veh, PPFIA1 / RFU, MAT2A / Fold change vs veh, MAT2A / RFU, CCT5 / Fold change vs veh, CCT5 / RFU, WDR92 / Fold change vs veh, WDR92 / RFU, CUX1 / Fold change vs veh, CUX1 / RFU, TTC7A / Fold change vs veh, TTC7A / RFU, TMEM135 / Fold change vs veh, TMEM135 / RFU, DEPTOR / Fold change vs veh, DEPTOR / RFU, CPM / Fold change vs veh, CPM / RFU, DNAJB6 / Fold change vs veh, DNAJB6 / RFU, CACNA2D3 / Fold change vs veh, CACNA2D3 / RFU, DTX4 / Fold change vs veh, DTX4 / RFU, TFCP2 / Fold change vs veh, TFCP2 / RFU, GMCL1 /// GMCL1P1 / Fold change vs veh, GMCL1 /// GMCL1P1 / RFU, AEBP2 / Fold change vs veh, AEBP2 / RFU, SNHG1 /// SNORD22 /// SNORD25 /// SNORD26 /// SNORD27 /// SNORD28 /// SNORD29 /// SNORD31 / Fold change vs veh, SNHG1 /// SNORD22 /// SNORD25 /// SNORD26 /// SNORD27 /// SNORD28 /// SNORD29 /// SNORD31 / Fold change (Aza/veh), C12orf56 (ProbeSet 11735607_a_at) / Fold change (ACY-1035/veh), C12orf56 (ProbeSet 11735607_a_at) / Fold change (Aza/veh), FGFR1OP (ProbeSet 11751329_s_at) / Fold change (ACY-1035/veh), FGFR1OP (ProbeSet 11751329_s_at) / Fold change (Aza/veh), VPS36 (ProbeSet 11739960_a_at) / Fold change (ACY-1035/veh), VPS36 (ProbeSet 11739960_a_at) / RFU SYPL1 (11715823_x_at) / Fold change /veh SYPL1 (11715823_x_at) / RFU IGFBP7 (11715501_s_at) / Fold change /veh IGFBP7 (11715501_s_at) / RFU REEP3 (11722064_at) / Fold change /veh REEP3 (11722064_at) / RFU IGLL1 (11728026_x_at) / Fold change /veh IGLL1 (11728026_x_at): dose or concentration left out as unconfirmed. The following applies: MV-4-11 cells, 48 hours.

Regarding `Nc1ncn([C@@H]2O[C@H](CO)[C@@H](O)[C@H]2O)c(=O)n1` [azacitidine], the “RFU HAMP (11756126_x_at)” value came to 317.78 RFU.

Source of the values: PMC5218480 (PLoS ONE, 2017).
